# Assay results taken from patent US20140274978A1, “Phytosterol spirostane and spirostene derivatives having a wide variety of utilities in humans and other animals” (priority 2013, published 2014).
# Read-outs that look alike come from different tables or passages of the source.
# Legend:
# [1] = Oral administration to older dogs (vigor, health); format: in vivo; details: for behavior of ailing dogs / age lived to: two Rhodesian Ridgeback dogs; for behavior of ailing dogs: age 13, failure to thrive; for age lived to: daily dosages from age 13; for activity, stamina, appetite, stiffness, overall health reported by pet owners / lean muscle mass and body fat: dogs of 7-14 years of age; for activity, stamina, appetite, stiffness, overall health reported by pet owners: 1-10 mg/day in two divided doses; for lean muscle mass and body fat: over 2-3 months administration
# Source text: Their appetite and activity increased, they became leaner—leaner muscle, wanted to go for walks and became like a new dog. They lived another 3 years on a daily dosages to age 16. Their treating Veterinarian said he had never seen dogs of their size and breed live to such an advanced age. Numerous similar reports were collected.
# See Kokl. Akad. Nauk. Uzb., SSR, 1981, v.3, pp. 31-33. See also Farmakol. Toksikol., 1976, 39(5), pp. 631-35.
# [2] = Laxogenin in a person with double knee replacement (pain, recovery); format: in vivo, humans
# Experimental: The compounds of the present invention also have the ability to mediate and/or reduce pain in humans and other animals. A person received a double knee replacement due to long time injuries. They began taking 3 doses per day of Laxogenin at 150 mg per dose one week prior to knee surgery.
# [3] = Physical stamina and endurance of hunting dogs; format: in vivo; details: 5-10 mg/day
# Source text: The compounds of invention are also useful for increasing physical stamina and endurance in young working and sporting dogs used for hunting, sled pulling and herding and dogs in competitions such as greyhound racing, field trials, agility, disc dog, dock jumping and Schutzhund.
# [4] = Topical lotion on severely atrophic skin of an elderly person; format: in vivo, humans; details: atrophic skin of hands; for skin elasticity and strength: after one month; for traumatic purpurra and venous lakes: two months
# Source text: Phytosterol derivative compounds of the present invention are also useful as skin agents for animals and useful as cosmetic agents when formulated in preparations which, when applied to the skin, create a penetrating flux that will deliver the compound to both the epidermis and dermis. The preferred lotion formulations are of low irritancy and are generally comprised of either a spirostane or a spirostene or, preferably for synergistic reasons, a combination of both [0.05-0.2% (w/w) combined in a ratio of 2:1 to 1:2] dissolved in a solution consisting of propylene glycol [50-70% (w/w)]. propylene carbonate [15-25% (w/w)], water [10-20% (w/w)], and glycerol [0.12.0% (w/w)]. The steroid solutions are most preferably formulated at 80-90% saturation.
# The compounds of invention, when formulated as above, are useful for reversing many aspects of degenerative skin disorders (such as thin, fragile, inelastic skin and weakened dermal blood vessels) due to various causes such as aging or chronic corticosteroid therapy.
# [5] = Synergy of 7-keto-diosgenin with laxogenin and/or 5-hydroxy laxogenin (inventor's finding); details: 1:1 ratio found effective
# protein synthesis = details: cited from earlier work; for sensitivity of protein stimulation to actinomycin D: Russian report, Biol. Nauki 1984
# [6] = labeled ecdysterone 50 mg/kg, mice; cited from earlier work
# [7] = Life span of a Great Dane on daily administration; format: in vivo, dogs; details: 8 mg/day from age 8, upper limit for lineage 10 years
# Experimental: The compounds of invention are also useful for lengthening the life span of various large breeds of dogs (and presumably small breeds). One Great Dane. given 25R-Spirostan-3B, 5α-diol-6-one daily (8 mg/day) from age 8 on. lived to be almost 13 years old. The dog had to be euthanized because it suffered from dysplasia in both hips; otherwise it was healthy and active. The upper limit of age for Great Danes of this lineage was previously considered to be 10 years.
# A Great Dane that was given 25R-Spirostan-3B, 5α-diol-6-one daily (8 mg/day) from age 8 on lived to be almost 13 years old. The dog had to be euthanized because it suffered from dysplasia in both hips; otherwise it was healthy and active. The upper limit of age for Great Danes of this particular lineage was previously considered to be 10 years.
# [8] = Oral administration to aging human volunteers (energy, stamina, sleep); format: in vivo, humans
# Experimental: The spirostanic compounds of the invention are also useful in increasing and restoring health and vigor, useful in preventing fatigue, and useful in improving physical condition and performance and increasing work output in aging humans and other mammals. For example, 15 mg of 25R-Spirostan-3B, 5α-diol-6-one was given to a person in three divided doses per day (t.i.d.) for two weeks.
# 15 mg of 25R-Spirostan-3B, 5α-diol-6-one was given to a person in three divided doses per day (t.i.d.) for two weeks.
# [9] = cited from earlier work
# estrogen receptors = assay: Competitive binding inhibition studies (Baylor University), estrogen receptors; details: even at the limits of compound solubility
# Source text: (§1) Consequently, the spirostane and spirostene compounds of the present invention are expected to be devoid of hormonal activity.
# androgen receptors = biological target: T1, androgen receptors (Homo sapiens, UniProt P10275); assay: Competitive binding inhibition studies (Baylor University), androgen receptors; details: even at the limits of compound solubility
# T1 sequence (P10275 1-920): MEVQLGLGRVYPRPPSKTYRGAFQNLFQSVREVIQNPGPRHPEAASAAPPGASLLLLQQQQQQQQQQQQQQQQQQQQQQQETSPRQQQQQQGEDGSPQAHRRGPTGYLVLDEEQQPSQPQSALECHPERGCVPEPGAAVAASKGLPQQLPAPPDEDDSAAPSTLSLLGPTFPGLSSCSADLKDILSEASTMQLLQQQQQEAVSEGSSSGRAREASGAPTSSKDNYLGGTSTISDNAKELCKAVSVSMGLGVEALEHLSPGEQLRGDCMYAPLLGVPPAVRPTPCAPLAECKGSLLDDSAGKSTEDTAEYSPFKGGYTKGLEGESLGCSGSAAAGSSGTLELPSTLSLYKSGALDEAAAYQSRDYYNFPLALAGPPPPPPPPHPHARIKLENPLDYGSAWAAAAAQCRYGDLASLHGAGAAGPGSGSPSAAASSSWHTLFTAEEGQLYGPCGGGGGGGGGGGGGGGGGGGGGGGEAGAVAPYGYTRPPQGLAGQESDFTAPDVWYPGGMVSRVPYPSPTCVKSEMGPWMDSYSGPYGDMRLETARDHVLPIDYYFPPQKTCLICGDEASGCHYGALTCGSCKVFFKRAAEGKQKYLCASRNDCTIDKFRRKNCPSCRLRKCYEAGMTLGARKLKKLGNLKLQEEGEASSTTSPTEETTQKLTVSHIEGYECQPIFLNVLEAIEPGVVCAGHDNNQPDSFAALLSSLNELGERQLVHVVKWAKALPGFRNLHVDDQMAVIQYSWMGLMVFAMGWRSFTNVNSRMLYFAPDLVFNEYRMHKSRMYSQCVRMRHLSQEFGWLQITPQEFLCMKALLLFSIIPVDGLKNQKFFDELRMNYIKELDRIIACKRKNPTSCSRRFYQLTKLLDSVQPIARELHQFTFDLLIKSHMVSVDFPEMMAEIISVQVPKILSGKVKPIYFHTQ
# Source text: as §1
# [10] = Oral 5-androsten-3β,17β-diol-7-one diacetate with weight resistance training; format: in vivo, humans
# Experimental: Human volunteers familiar with conventional anabolic steroids used 60 mg/day (20 mg tid) 5-androsten-3β,17β-diol-7-one diacetate orally, in conjunction with weight resistance training.
# [11] = 3 grams/day for 30 days, humans; cited from earlier work
# [12] = rat, in vivo, 25 mg/kg; cited from earlier work
# [13] = 15 mg in three divided doses per day, two weeks, person
smiles,measurement,setting,value
"C[C@@H]1CC[C@@]2(OC1)O[C@H]1C[C@H]3[C@@H]4CC(=O)[C@H]5C[C@@H](O)CC[C@]5(C)[C@H]4CC[C@]3(C)[C@H]1[C@@H]2C [Laxogenin, (25R)-3β-hydroxy-5α-spirostan-6-one]",behavior of ailing dogs,[1],started to exhibit puppy like behavior after 48 hours
same,age lived to,[1],16
same,pain before surgery,"[2]; 3 doses per day at 150 mg per dose, started one week prior to knee surgery",pain had diminished their third day
same,standing and walking,[2]; 7th day after surgery,"could stand and walk far distances free of pain, stiffness and discomfort"
same,need for morphine drip,[2]; day after operation,able to discontinue their morphine drip altogether
same,surface inflammation and scarring,[2]; liquid version applied topically,reduced surface inflammation and scarring greatly
"C[C@@H]1CC[C@@]2(OC1)O[C@H]1C[C@H]3[C@@H]4C(=O)C=C5C[C@@H](O)CC[C@]5(C)[C@H]4CC[C@]3(C)[C@H]1[C@@H]2C [7-keto-diosgenin, 5,25R-spirosten-3β-ol-7-one]","activity, stamina, appetite, stiffness, overall health reported by pet owners",[1],"increased activity, playfulness, physical stamina, appetite and interaction with owners, reduced stiffness and weakness, and improved overall health"
same,lean muscle mass and body fat,[1],increased many of the dogs' lean muscle mass while reducing body fat
same,behavior of ailing dogs,[1],started to exhibit puppy like behavior after 48 hours
same,age lived to,[1],16
same,physical stamina and endurance,[3],noticeable improvement in their dogs physical stamina and endurance within one week
same,skin elasticity and strength,[4],dramatic increases in skin elasticity and strength
same,traumatic purpurra and venous lakes,[4],Virtually all traumatic purpurra and venous lakes were resolved within two months
same,synergy with laxogenin and/or 5-hydroxy laxogenin,[5],unexpectedly synergistic
"CC(C)(O)CC[C@@H](O)[C@](C)(O)[C@H]1CC[C@@]2(O)C3=CC(=O)[C@@H]4C[C@@H](O)[C@@H](O)C[C@]4(C)[C@H]3CC[C@]12C [ecdysterone, 20-Hydroxyecdysone]",repression of induced protein synthesis by actinomycin D,"protein synthesis; Japanese report, Chem. Pharm. Bull. 1969",partially repressed
same,sensitivity of protein stimulation to actinomycin D,protein synthesis,completely insensitive to actinomycin D
same,serum half-life,[6],8.15 min
"C[C@@H]1CC[C@@]2(OC1)O[C@H]1C[C@H]3[C@@H]4CC(=O)[C@@]5(O)C[C@@H](O)CC[C@]5(C)[C@H]4CC[C@]3(C)[C@H]1[C@@H]2C [25R-Spirostan-3B, 5α-diol-6-one, (25R)-spirostan-3β-5α-diol-6-one]",age lived to,[7],~13 years
same,"activity, stamina, appetite, stiffness, overall health reported by pet owners",[1],"increased activity, playfulness, physical stamina, appetite and interaction with owners, reduced stiffness and weakness, and improved overall health"
same,lean muscle mass and body fat,[1],increased many of the dogs' lean muscle mass while reducing body fat
same,physical stamina and endurance,[3],noticeable improvement in their dogs physical stamina and endurance within one week
same,length of time able to work in garden,[8]; [13],2-3 times
same,"well-being, energy and physical stamina",[8]; [13],"overall increase in well-being, accompanied by a definite increase in energy and physical stamina"
same,total sleep time,"[8]; 60 mg/day, over one month, increased from 6 hrs/night",approximately 8 hrs/night
same,physical energy and stamina,"[8]; 60 mg/day, person and person",definite increases in physical energy and stamina within one week
same,anabolic activity in older (mature) rats,[9]; older (i.e. mature) rats,reduced anabolic activity
same,anabolic activity in young rats,[9]; young rats,higher anabolic activity
same,skin elasticity and strength,[4],dramatic increases in skin elasticity and strength
same,traumatic purpurra and venous lakes,[4],Virtually all traumatic purpurra and venous lakes were resolved within two months
same,binding to estrogen receptors,estrogen receptors,did not bind
same,binding to androgen receptors,androgen receptors,did not bind
CC(C)(O)CC[C@@H](O)[C@](C)(O)[C@H]1CC[C@@]2(O)C3=CC(=O)[C@@H]4C[C@@H](O)[C@@H](O)C[C@]4(C)[C@H]3[C@H](O)C[C@]12C [turkesterone],sensitivity of protein stimulation to actinomycin D,protein synthesis,completely insensitive to actinomycin D
"CC(=O)O[C@H]1CC[C@@]2(C)C(=CC(=O)[C@H]3[C@@H]4CC[C@H](OC(C)=O)[C@@]4(C)CC[C@@H]32)C1 [5-androsten-3β,17β-diol-7-one diacetate]",androgenic side-effects,[10]; 60 mg/day (20 mg tid) orally,No subject reported any noticeable androgenic side-effects
same,"strength, endurance and muscle mass accretion",[10]; 60 mg/day (20 mg tid) orally with weight resistance training,increases in strength and endurance as well as accelerated increases in muscle mass accretion
C[C@@H]1CC[C@@]2(OC1)O[C@H]1C[C@H]3[C@@H]4CC=C5C[C@@H](O)CC[C@]5(C)[C@H]4CC[C@]3(C)[C@H]1[C@@H]2C [diosgenin],metabolism in the B-ring,[11],not metabolized in the B-ring
same,serum half-life,[12],approximately 14 hours
